Reference: ChEMBL document CHEMBL1944591, “Synthesis and biological evaluation of quinazoline and quinoline bearing 2,2,6,6-tetramethylpiperidine-N-oxyl as potential epidermal growth factor receptor(EGFR) tyrosine kinase inhibitors and EPR bio-probe agents” (Eur J Med Chem, 2012)

test system: A-431; assay: Cytotoxicity against human A431 cells after 72 hrs by MTT assay; assay type: functional, cell-based; settings: Homo sapiens, A-431, 72 h; call rule not given here

Compound	IC50
COc1cc2ncc(C(=O)O)c(Nc3cccc(Br)c3)c2cc1OC	94 µM
COc1cc2ncc(C(=O)NC3CC(C)(C)N([O])C(C)(C)C3)c(Nc3cccc(Cl)c3)c2cc1OC	45.5 µM
Nc1ccc2ncnc(Nc3cccc(Br)c3)c2c1	34.9 µM
COc1cc2ncc(C(=O)O)c(Nc3cccc(Cl)c3)c2cc1OC	97.9 µM
CC1(C)CC(C(=O)Nc2ccc3ncnc(Nc4cccc(Br)c4)c3c2)CC(C)(C)N1[O]	27.4 µM
COc1cc2ncc(C(=O)NC3CC(C)(C)N([O])C(C)(C)C3)c(Nc3cccc(Br)c3)c2cc1OC	43.2 µM
CC1(C)CC(C(=O)Nc2ccc3ncnc(Nc4cccc(Cl)c4)c3c2)CC(C)(C)N1[O]	26.9 µM
CC1(C)CC(C(=O)Nc2ccc3ncnc(Nc4ccc(F)c(Cl)c4)c3c2)CC(C)(C)N1[O]	24.7 µM
COc1cc2ncc(C(=O)O)c(Nc3ccc(F)c(Cl)c3)c2cc1OC	88.8 µM
CC1(C)CCCC(C)(C)N1[O]	> 300 µM
COc1cc2ncc(C(=O)NC3CC(C)(C)N([O])C(C)(C)C3)c(Nc3ccc(F)c(Cl)c3)c2cc1OC	38.1 µM

same assay, conditions: a-431

Compound	IC50
Nc1ccc2ncnc(Nc3cccc(Cl)c3)c2c1	31.9 µM

biological target: T1, Epidermal growth factor receptor (Homo sapiens, UniProt P00533); settings: at 10 µM
T1 sequence (P00533 whole entry): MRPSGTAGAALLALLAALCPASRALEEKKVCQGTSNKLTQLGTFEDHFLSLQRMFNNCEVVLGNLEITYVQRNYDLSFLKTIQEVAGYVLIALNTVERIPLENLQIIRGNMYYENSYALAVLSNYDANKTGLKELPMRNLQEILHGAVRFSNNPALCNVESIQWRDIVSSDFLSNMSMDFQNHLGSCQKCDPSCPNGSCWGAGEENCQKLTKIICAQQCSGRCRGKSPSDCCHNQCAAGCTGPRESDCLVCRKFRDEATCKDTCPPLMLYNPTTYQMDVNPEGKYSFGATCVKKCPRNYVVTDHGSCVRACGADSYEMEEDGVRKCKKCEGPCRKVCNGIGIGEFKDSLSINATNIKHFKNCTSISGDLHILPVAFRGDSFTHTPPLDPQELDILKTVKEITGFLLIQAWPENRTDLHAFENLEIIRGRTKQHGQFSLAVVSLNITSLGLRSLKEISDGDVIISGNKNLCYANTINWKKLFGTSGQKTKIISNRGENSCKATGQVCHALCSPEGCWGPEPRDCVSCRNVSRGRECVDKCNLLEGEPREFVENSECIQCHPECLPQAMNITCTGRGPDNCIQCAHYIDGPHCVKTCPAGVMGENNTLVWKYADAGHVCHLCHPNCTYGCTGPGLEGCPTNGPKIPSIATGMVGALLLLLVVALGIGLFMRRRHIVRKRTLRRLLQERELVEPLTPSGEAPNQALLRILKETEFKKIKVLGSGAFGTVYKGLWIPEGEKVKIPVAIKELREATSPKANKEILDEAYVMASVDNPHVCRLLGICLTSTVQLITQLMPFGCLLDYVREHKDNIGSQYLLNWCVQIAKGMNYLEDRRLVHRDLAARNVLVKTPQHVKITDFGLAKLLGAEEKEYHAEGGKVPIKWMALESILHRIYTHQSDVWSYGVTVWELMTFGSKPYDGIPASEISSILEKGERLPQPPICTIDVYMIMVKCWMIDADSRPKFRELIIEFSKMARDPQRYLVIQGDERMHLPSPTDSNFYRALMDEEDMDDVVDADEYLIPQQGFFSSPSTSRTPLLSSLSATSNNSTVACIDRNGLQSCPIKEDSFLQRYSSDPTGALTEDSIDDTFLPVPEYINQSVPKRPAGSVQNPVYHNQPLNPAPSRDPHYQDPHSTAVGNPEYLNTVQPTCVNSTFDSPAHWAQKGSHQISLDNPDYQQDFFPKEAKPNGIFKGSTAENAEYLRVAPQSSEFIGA

Compound	inhibition
COc1cc2ncc(C(=O)O)c(Nc3cccc(Br)c3)c2cc1OC	60.1%
COc1cc2ncc(C(=O)NC3CC(C)(C)N([O])C(C)(C)C3)c(Nc3cccc(Cl)c3)c2cc1OC	88.3%
CC1(C)CC(C(=O)Nc2ccc3ncnc(Nc4cccc(Br)c4)c3c2)CC(C)(C)N1[O]	99.4%
COc1cc2ncc(C(=O)NC3CC(C)(C)N([O])C(C)(C)C3)c(Nc3cccc(Br)c3)c2cc1OC	90.3%
Nc1ccc2ncnc(Nc3cccc(Cl)c3)c2c1	98.9%
CC1(C)CC(C(=O)Nc2ccc3ncnc(Nc4cccc(Cl)c4)c3c2)CC(C)(C)N1[O]	99.4%
CC1(C)CC(C(=O)Nc2ccc3ncnc(Nc4ccc(F)c(Cl)c4)c3c2)CC(C)(C)N1[O]	99.5%
Nc1ccc2ncnc(Nc3ccc(F)c(Cl)c3)c2c1	99.5%
COc1cc2ncc(C(=O)O)c(Nc3ccc(F)c(Cl)c3)c2cc1OC	66.5%
COc1cc2ncc(C(=O)NC3CC(C)(C)N([O])C(C)(C)C3)c(Nc3ccc(F)c(Cl)c3)c2cc1OC	92.8%

biological target: T1, Epidermal growth factor receptor; assay: Inhibition of EGFR after 50 mins by HTRF assay; settings: not given

Compound	IC50
COc1cc2ncc(C(=O)O)c(Nc3cccc(Br)c3)c2cc1OC	8.72 µM
COc1cc2ncc(C(=O)NC3CC(C)(C)N([O])C(C)(C)C3)c(Nc3cccc(Cl)c3)c2cc1OC	0.623 µM
CC1(C)CC(C(=O)Nc2ccc3ncnc(Nc4cccc(Br)c4)c3c2)CC(C)(C)N1[O]	0.031 µM
COc1cc2ncc(C(=O)NC3CC(C)(C)N([O])C(C)(C)C3)c(Nc3cccc(Br)c3)c2cc1OC	0.342 µM
CC1(C)CC(C(=O)Nc2ccc3ncnc(Nc4cccc(Cl)c4)c3c2)CC(C)(C)N1[O]	0.065 µM
CC1(C)CC(C(=O)Nc2ccc3ncnc(Nc4ccc(F)c(Cl)c4)c3c2)CC(C)(C)N1[O]	0.015 µM
Nc1ccc2ncnc(Nc3ccc(F)c(Cl)c3)c2c1	0.029 µM
COc1cc2ncc(C(=O)O)c(Nc3ccc(F)c(Cl)c3)c2cc1OC	9.28 µM
COc1cc2ncc(C(=O)NC3CC(C)(C)N([O])C(C)(C)C3)c(Nc3ccc(F)c(Cl)c3)c2cc1OC	0.422 µM

test system: A-431; assay: Cellular uptake in human A431 cells after 8 hrs by EPR spectroscopy; assay type: ADME, cell-based; settings: a-431, 8 h

Compound	Drug uptake
CC1(C)CC(C(=O)Nc2ccc3ncnc(Nc4ccc(F)c(Cl)c4)c3c2)CC(C)(C)N1[O]	Active
COc1cc2ncc(C(=O)NC3CC(C)(C)N([O])C(C)(C)C3)c(Nc3ccc(F)c(Cl)c3)c2cc1OC	Active

test system: A-431; assay: Cytotoxicity against human A431 cells at 300 uM after 72 hrs by MTT assay; assay type: functional; settings: A-431, 72 h

Compound	inhibition at 300 µM
CC1(C)CCCC(C)(C)N1[O]	< 50%
